Measurements from ChEMBL document CHEMBL2062363, “Ligand-based design, in silico ADME-Tox filtering, synthesis and biological evaluation to discover new soluble 1,4-DHP-based CFTR activators” (Eur J Med Chem, 2012).

What was measured:
[1] = Potentiation of forskolin-induced CFTR deltaF508 mutant expressed in FRT cells co-expressing halide-sensitive YFP-H148Q/I152L by fluorescence quenching assay; type: cell-based, Homo sapiens
[2] = molecular target: L-type voltage-dependent Ca2+ channel (Homo sapiens, UniProt O60840+Q01668+Q13698+Q13936); experiment: Inhibition of L-type voltage-dependent Ca2+ channel at 1 uM
[3] = Induction of nitric oxide release in phosphate buffer at pH 7.4 at 10^-4 M after 1 hr by Griess reaction presence of L-cysteine; type: physicochemical; settings: pH 7.4, 1 h, 100 µM

Structure (SMILES) | pEC50 for potentiation of CFTR deltaF508 (activation potency) [1] | inhibition at 1 µM [2] [%] | Activity [3] [%]
COCCOC(=O)C1=C(C)N=C(C)/C(=C(/O)OCCOC)C1/C=C/c1ccccc1OC (configuration not stated) | 6.1 | 10.6 | –
C=CCO/C(O)=C1\C(C)=NC(SCC)=C(C#N)C1c1ccc(Cl)cc1 (configuration not stated) | 5.58 | 29.7 | –
C=CCOC(=O)C1=C(C)NC(C)=C(C(=O)OCC=C)C1/C=C/c1ccccc1OC | 6.49 | 18 | –
CC1=C(C(=O)OC(C)C)C(c2ccc(F)cc2)C(C(=O)OC(C)C)=C(C)N1 | 6.52 | 96.8 | –
C=CCOC(=O)C1=C(C)NC(C)=C(C(=O)OCC=C)C1c1cccc([N+](=O)[O-])c1 | 6.92 | 100 | –
C=CCOC(=O)C1=C(C)NC(C)=C(C(=O)OCC=C)C1c1ccc(OC)c(OC)c1 | 5.55 | 28.7 | –
C=CCOC(=O)C1=C(C)NC(C)=C(C(=O)OCC=C)C1c1ccc(O)c(OCC)c1 | 6.46 | 63.6 | –
C=CCOC(=O)C1=C(C)NC(C)=C(C(=O)OCC=C)C1c1ccc(C(C)C)cc1 | 6.6 | 64 | –
C=CCOC(=O)C1=C(C)NC(C)=C(C(=O)OCC=C)C1c1ccc(C)cc1 | 6.3 | 55.7 | –
COC(=O)C1=C(C)NC(C)=C(C(=O)OC)C1c1ccc(C(C)(C)C)cc1 | 5.52 | 20.9 | –
CCN(CC)c1ccc(C2C(C(=O)OC)=C(C)NC(C)=C2C(=O)OC)cc1 | 5.92 | 7.1 | –
COC(=O)C1=C(C)NC(C)=C(C(=O)OC)C1c1ccccc1 | 5.77 | 70.5 | –
C=CCOC(=O)C1=C(C)NC(SC)=C(C#N)C1c1ccc(Cl)cc1 (configuration not stated) | 6.26 | 36.7 | –
CCOC(=O)C1=C(C)NC(SC)=C(C#N)C1c1ccccc1 (configuration not stated) | 5.3 | 23.4 | –
C=CCOC(=O)C1=C(C)NC(C)=C(C(=O)OCC=C)C1c1ccc(N(C)C)cc1 | 5.82 | 23.9 | –
C=CCOC(=O)C1=C(C)NC(C)=C(C(=O)OCC=C)C1c1ccc(C(=O)OC)cc1 | 5.52 | 7.8 | –
CC1=C(C(=O)OC(C)C)C(c2ccc(C)cc2)C(C(=O)OC(C)C)=C(C)N1 | 6.27 | 47 | –
COC(=O)C1=C(C)NC(C)=C(C(=O)OC)C1c1ccc(-c2ccc(Cl)c(Cl)c2)o1 | 5.51 | 8.3 | –
COC(=O)C1=C(C)NC(C)=C(C(=O)OC)C1c1ccc(I)cc1 | 6.34 | 12.3 | –
C=CCOC(=O)C1=C(C)NC(C)=C(C(=O)OCC=C)C1c1ccc(OC)cc1 | 6.3 | 37.2 | –
C=CCOC(=O)C1=C(C)NC(C)=C(C(=O)OCC=C)C1c1ccc(I)cc1 | 5.77 | 37.5 | –
COC(=O)C1=C(C)NC(C)=C(C(=O)OC)C1c1ccc(OCc2ccccc2)cc1 | 5.46 | 22.5 | –
COC(=O)C1=C(C)NC(C)=C(C(=O)OCCCO[N+](=O)[O-])C1c1cccc([N+](=O)[O-])c1 (configuration not stated) | 5.88 | – | < 0.5
CC1=C(C(=O)OCCCO[N+](=O)[O-])C(c2cccc([N+](=O)[O-])c2)C([N+](=O)[O-])=C(C)N1 (racemic) | 5.07 | – | < 0.5

Further lines, with some results ahead:

pEC50 for potentiation of CFTR deltaF508 (activation potency) [1] | inhibition at 1 µM [2] [%] | Structure (SMILES) | Activity [3] [%]
5.71 | 47.4 | CCOC(=O)C1=C(C)NC(C)=C(C(=O)OCC)C1c1ccc([N+](=O)[O-])cc1 | –
6.59 | 43.2 | CCOC(=O)C1=C(C)NC(C)=C(C(=O)OCC)C1c1cccc(Oc2ccccc2)c1 | –
6.22 | 30.8 | CCOC(=O)C1=C(C)NC(C)=C(C(=O)OCC)C1c1ccc(C(C)C)cc1 | –
6.44 | 100 | CCOC(=O)C1=C(C)NC(C)=C(C(=O)OCC)C1c1c(F)cccc1Cl | –
5.7 | 44.9 | COCCOC(=O)C1=C(C)NC(C)=C(C(=O)OCCOC)C1c1ccc(-c2cccc(Cl)c2Cl)o1 | –
6.4 | 81 | C=CCOC(=O)C1=C(C)NC(C)=C(C(=O)OCC=C)C1c1ccc(Cl)cc1Cl | –
5.52 | 9.6 | CCCCOc1ccc(C2C(C(=O)OCC)=C(C)NC(C)=C2C(=O)OCC)cc1 | –
6.21 | 91.9 | COC(=O)C1=C(C)NC(C)=C(C(=O)OC)C1c1cccc(F)c1 | –
6.74 | 100 | C=CCOC(=O)C1=C(C)NC(C)=C(C(=O)OCC=C)C1c1ccccc1Cl | –
6.82 | 100 | C=CCOC(=O)C1=C(C)NC(C)=C(C(=O)OCC=C)C1c1cccc(Cl)c1 | –
5.77 | 38.2 | CCOC(=O)C1=C(C)NC(C)=C(C(=O)OCC)C1c1ccc2c(c1)OCO2 | –
5.43 | 10.3 | COC(=O)C1=C(C)NC(C)=C(C(=O)OC)C1c1ccc(-c2cccc(Cl)c2Cl)o1 | –
